From ChEMBL document CHEMBL1201862, “PubChem BioAssay data set” (2004)
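Test compounds were applied to cells in 96-well plates for 48 hours at 5 doses. GI50 marks 50% less growth.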 Active and inactive are the calls of the source. No stated cut-off is given here; in the data, active = GI50 up to about 1.1 µM and inactive = higher.

Tests used:
Experiment in all cases: NCI anticancer screen, dose series, 48 h
[1] = system: SNB-75
[2] = system: Malme-3M
[3] = system: HCT-116
[4] = system: SK-OV-3
[5] = system: EKVX
[6] = system: HCC 2998
[7] = system: HT-29
[8] = system: SW-620
[9] = system: SF-268
[10] = system: UACC-62
[11] = system: SK-MEL-5
[12] = system: OVCAR-3
[13] = system: HCT-15
[14] = system: SK-MEL-28
[15] = system: SF-539
[16] = system: A498
[17] = system: OVCAR-5
[18] = system: KM12
[19] = system: NCI/ADR-RES
[20] = system: ACHN

Structure (SMILES) | GI50 [1] | GI50 [2] | GI50 [3] | GI50 [4] | GI50 [5] | GI50 [6] | GI50 [7] | GI50 [8] | GI50 [9] | GI50 [10] | GI50 [11] | GI50 [12] | GI50 [13] | GI50 [14] | GI50 [15] | GI50 [16] | GI50 [17] | GI50 [18] | GI50 [19] | GI50 [20]
CCCSc1ccc2[nH]c(N3C(=O)/C(=C/c4cc(OC)c(OC)c(OC)c4)N=C3c3ccccc3)cc2c1 | 10.8 µM (inactive) | 13.9 µM (inactive) | 16.5 µM (inactive) | 1.6 µM (inactive) | 5.74 µM (inactive) | 13.2 µM (inactive) | 7.82 µM (inactive) | 10.9 µM (inactive) | 11 µM (inactive) | 8.61 µM (inactive) | 7.53 µM (inactive) | 9.12 µM (inactive) | 12.2 µM | 12.9 µM (inactive) | 1.72 µM (inactive) | 0.871 µM (active) | 17.7 µM (inactive) | 1.65 µM (inactive) | 11.6 µM (inactive) | 23 µM (inactive)
COc1cccc(N/C(C)=C2/CCOC2=O)c1 | > 10 µM (inactive) | > 10 µM (inactive) | > 10 µM (inactive) | > 10 µM (inactive) | > 10 µM (inactive) | > 10 µM (inactive) | > 10 µM (inactive) | > 10 µM (inactive) | > 10 µM (inactive) | > 10 µM (inactive) | > 10 µM (inactive) | > 10 µM (inactive) | 5.08 µM | > 10 µM (inactive) | > 10 µM (inactive) | > 10 µM (inactive) | > 10 µM (inactive) | > 10 µM (inactive) | > 10 µM (inactive) | 5.33 µM (inactive)
CCCn1c(CN(Cc2nc3ccccc3n2CCC)Cc2nc3ccccc3n2CCC)nc2ccccc21 | 6.79 µM (inactive) | 4.94 µM (inactive) | 1.74 µM (inactive) | 41.5 µM (inactive) | 0.966 µM (active) | 5.68 µM (inactive) | 2.25 µM (inactive) | 5.11 µM (inactive) | 3.99 µM (inactive) | 3.7 µM (inactive) | 2.55 µM (inactive) | 3.37 µM (inactive) | 4.39 µM | 10.7 µM (inactive) | 4.2 µM (inactive) | 4.74 µM (inactive) | 6.07 µM (inactive) | 4.68 µM (inactive) | 8.69 µM (inactive) | 2.11 µM (inactive)
O=S1(=O)CS(=O)(=O)OCCCO1 | 51.8 µM (inactive) | > 100 µM (inactive) | > 100 µM (inactive) | > 100 µM (inactive) | > 100 µM (inactive) | > 100 µM (inactive) | > 100 µM (inactive) | > 100 µM (inactive) | > 100 µM (inactive) | > 100 µM (inactive) | > 100 µM (inactive) | > 100 µM (inactive) | > 100 µM | > 100 µM (inactive) | 54.1 µM (inactive) | > 100 µM (inactive) | > 100 µM (inactive) | > 100 µM (inactive) | > 100 µM (inactive) | 52.1 µM (inactive)
